pIC50: −log10 of the molar value.

Assay [1] has as its system P-glycoprotein. The experiment in a line: P-glycoprotein expression level by western blotting after drug addition. The class given is cell-based, human. As for the experimental part:
In […] HCT-15 cells (obtained from Developmental Therapeutics Program, National Cancer Institute, National Institutes of Health, Bethesda, Md., USA) and […] SW620 cells (obtained from Developmental Therapeutics Program, National Cancer Institute, National Institutes of Health, Bethesda, Md., USA), which expressed P-glycoprotein at a high level, screening of drugs that reduced the expression level of P-glycoprotein was performed by western blotting. […]
Inhibitory effects of MEK inhibitor U0126 on the expression level of P-glycoprotein in HCT-15 and SW620 cells prepared by the same procedure as described in PREPARATION EXAMPLE 1 in which endogenous P-glycoprotein was expressed and in the MCF-7/MDR and MDA-MB-231/MDR cells in which exogenous P-glycoprotein was expressed were monitored with passage of time in a manner similar to EXAMPLE 1. […]
Using MEK inhibitor PD098059 (purchased from Cell Signaling Technology; see English, J. et al. (1999) Exp. Cell Res. 253, 255), which has an action mechanism different from U0126, inhibitory effects of MEK inhibitor PD098059 on the expression level of P-glycoprotein in the HCT-15 and SW620 cells in which endogenous P-glycoprotein was expressed and in the MCF-7/MDR and MDA-MB-231/MDR cells in which exogenous P-glycoprotein was expressed were monitored with passage of time in a manner similar to EXAMPLE 1. […]
For orientation: In western blotting, separated proteins are transferred to a membrane and probed.

Assay [2] has as its system MDR1 mRNA. The following applies: U0126 10 μM.
Assay [3] relates to BCRP. The following applies: U0126 10 μM; human colon cancer (HT-29, KM12), non-small-cell lung cancer (NCI-H460, A549) and ovarian cancer (OVACAR-5) cells; in 12 hours later (FIG. 5).
Method: After incubation for 8 hours or 12 hours, each drug was added to the cells followed by further incubation. Thereafter, the BCRP expression level was assessed by western blotting using an anti-BCRP antibody (manufactured by Chemicon International Inc., trade name: BXP-21). The protein of 10 μg each was electrophoresed in each lane. The protein was quantified by Bradford assay (Bio-Rad protein assay dye reagent). More specifically, the incubated cells were recovered with a cell scraper and centrifuged (5,000 rpm×3 mins.) to pellet down. […] While vortexing every 5 minutes, the cell membrane and cytoplasmic fractions were solubilized on ice for 30 minutes in total. Using the supernatant after centrifugation (15,000 rpm×15 mins.) as a sample, the protein was quantified.
The subject of assay [4] is SW620-14 cells. Nature of the assay: cell growth inhibition test, SW620-14. It counts as cell-based. The following applies: Homo sapiens, 120 h, read-out: IC50 concentration (50% growth inhibitory concentration), 5 days.
Method: (§1) The cells were plated in 12-well plates (manufactured by IWAKI GLASS Co. […] Subsequently, the drug diluted in the medium to different concentrations was added in a volume of 1 ml per well. The plates were placed in a 5% carbon dioxide gas incubator and incubation was performed at 37° C. for 5 days. Five days after, the cells were rinsed with phosphate buffer and detached with 0.5 ml of trypsin-EDTA. The cells were then suspended in 1 ml of the medium. The cell suspension in each well was added into a beaker containing 9 ml of […] diluent (TOA Medical Electronics Co., Ltd.), and the number of cells was counted with a Sysmex CDA-500 automated cell counter (TOA Medical Electronics Co., Ltd.).
Assay [5] relates to MCF-7/MDR cells. The experiment in a line: cell growth inhibition test, MCF-7/MDR. It counts as cell-based. The note with it: Homo sapiens, MCF7, 120 h, read-out: IC50 concentration (50% growth inhibitory concentration), 5 days.
Method: as §1
Assay [6] has as its system MDA-MB-231/MDR cells. The experiment in a line: cell growth inhibition test, MDA-MB-231/MDR. It counts as cell-based. The following applies: Homo sapiens, 120 h, read-out: IC50 concentration (50% growth inhibitory concentration), 5 days.
Method: as §1
Assay [7] deals with HCT-15 cells. The experiment in a line: cell growth inhibition test, HCT-15. The following applies: Homo sapiens, 120 h, read-out: IC50 concentration (50% growth inhibitory concentration), 5 days. It counts as cell-based.
Method: as §1

Consider `O=c1cc(N2CCOCC2)oc2c(-c3ccccc3)cccc12` [LY294002, 2-(4-morpholinyl)-8-phenyl-1(4H)-benzopyran-4-one], for which the P-glycoprotein expression level entry in assay [1] (HCT-15 cells and SW620 cells, endogenous P-glycoprotein, western blotting (FIG. 1)) is given as “not down-regulated”.

With `N#CC(=C(N)Sc1ccccc1N)C(C#N)=C(N)Sc1ccccc1N` [U0126, 1,4-diamino-2,3-dicyano-1,4-bis[2-aminophenylthio]butadiene], in assay [1] (U0126 10 μM, MCF-7/MDR and MDA-MB-231/MDR cells (exogenous P-glycoprotein), in 8 to 12 hours (FIG. 2)), the “expression level of P-glycoprotein” value is given as ≤ 10 % of control. Further, the “expression level of MDR1 mRNA” value in assay [2] is recorded as “Any change was not observed”. In addition, the “expression level of BCRP” value in assay [3] is reported as “reduced”.

For `CC(=O)O[C@H]1C(=O)[C@@]2(C)[C@H]([C@H](OC(=O)c3ccccc3)[C@]3(O)C[C@H](OC(=O)[C@H](O)[C@@H](NC(=O)c4ccccc4)c4ccccc4)C(C)=C1C3(C)C)[C@]1(OC(C)=O)CO[C@@H]1C[C@@H]2O` [paclitaxel], the pIC50 in assay [4] is 8.30; in assay [5] it was 8.40; in assay [6] it was 6.10; in assay [7], 7.00.
